{
  "source": "patent US11136327B2",
  "about": "“Macrocycles as factor XIA inhibitors” (Bristol-Myers Squibb Company, priority 2010, dated 2021)",
  "key": {"[1]": {"target": "purified human Factor XIa (Homo sapiens (Human), UniProt P03951)", "sequence (P03951 388-625)": "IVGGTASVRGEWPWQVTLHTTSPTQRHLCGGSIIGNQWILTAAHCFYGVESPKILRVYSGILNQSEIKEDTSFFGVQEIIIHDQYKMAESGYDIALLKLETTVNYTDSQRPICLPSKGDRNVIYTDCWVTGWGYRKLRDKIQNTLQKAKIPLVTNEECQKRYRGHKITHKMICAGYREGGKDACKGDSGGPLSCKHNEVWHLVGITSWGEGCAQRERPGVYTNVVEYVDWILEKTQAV", "sequence (P03951 19-387 partner)": "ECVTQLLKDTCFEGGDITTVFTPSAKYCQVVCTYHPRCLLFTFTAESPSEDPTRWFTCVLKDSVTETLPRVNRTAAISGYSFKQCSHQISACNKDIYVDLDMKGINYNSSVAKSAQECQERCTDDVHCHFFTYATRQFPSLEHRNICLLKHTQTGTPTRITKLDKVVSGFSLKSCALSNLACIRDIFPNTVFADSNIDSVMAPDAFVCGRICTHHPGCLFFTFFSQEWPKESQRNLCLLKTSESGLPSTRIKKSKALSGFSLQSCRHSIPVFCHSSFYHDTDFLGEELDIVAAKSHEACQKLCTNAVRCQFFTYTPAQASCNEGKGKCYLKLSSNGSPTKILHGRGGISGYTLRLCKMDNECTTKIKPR", "test": "Factor XIa enzyme inhibition assay (chromogenic substrate S-2366)", "assay_type": "biochemical", "conditions": "substrate S-2366, pH 7.4", "protocol": "The effectiveness of compounds of the present invention as inhibitors of the coagulation Factors XIa, VIIa, IXa, Xa, XIIa, plasma kallikrein or thrombin, can be determined using a relevant purified serine protease, respectively, and an appropriate synthetic substrate. The rate of hydrolysis of the chromogenic or fluorogenic substrate by the relevant serine protease was measured both in the absence and presence of compounds of the present invention. […] A decrease in the rate of absorbance or fluorescence change in the presence of inhibitor is indicative of enzyme inhibition. Such methods are known to one skilled in the art. The results of this assay are expressed as the inhibitory constant, Ki.\nValues of Ki were determined by allowing the protease to react with the substrate in the presence of the inhibitor. Reactions were allowed to go for periods of 20-180 minutes (depending on the protease) and the velocities (rate of absorbance or fluorescence change versus time) were measured. The following relationships were used to calculate Ki values: (vo−vs)/vs=I/(Ki(1+S/Km)) for a competitive inhibitor with one binding site; or vs/vo=A+((B−A)/1+((IC50/(I)n))); and Ki=IC50/(1+S/Km) for a competitive inhibitor where: […]"}, "[2]": {"test": "not given", "remark": "listed apart in the source"}, "[3]": {"conditions": "from C=CCCOc1ccccc1-c1cn(COCC[Si](C)(C)C)c([C@H](CC=C)NC(=O)OC(C)(C)C)n1, rcm bond, 12-membered ring, Grubbs II (1 eq)/pTsOH, DCM, 1.02 mM, 40.0 °C, 1.0 h"}, "[4]": {"conditions": "from C=CCCCc1ccccc1-c1cn(COCC[Si](C)(C)C)c([C@H](CC=C)NC(=O)OC(C)(C)C)n1, rcm bond, 12-membered ring, Grubbs II (0.4 eq)/pTsOH, DCM, 0.97 mM, 40.0 °C, 1.0 h"}},
  "note": "Where two headings read alike, the source gives them in different places.",
  "data": [
    {"compound": "COC(=O)Nc1ccc2c(c1)NC(=O)CC/C=C/C[C@H](NC(=O)OC(C)(C)C)C1=NN=C2O1", "values": [
      {"measurement": "ring closure, isolated yield", "setting": "from -[5-((S)-1-tert-Butoxycarbonylamino-but-3-enyl)-1,3,4-oxadiazol-2-yl]-3-pent-4-enoylamino-phenyl}-carbamic acid methyl ester, rcm bond, 13-membered ring, Grubbs II (0.36 eq), DCE, 0.61 mM, 75.0 °C", "value": 19.1, "unit": "%"}
    ]},
    {"compound": "COC(=O)Nc1ccc2c(c1)N(C(=O)C(F)(F)F)[C@@H](C(=O)OC)CC=CC[C@H](NC(=O)OC(C)(C)C)c1nc-2cn1COCC[Si](C)(C)C", "values": [
      {"measurement": "ring closure, isolated yield", "setting": "from C=CC[C@H](NC(=O)OC(C)(C)C)c1nc(-c2ccc(NC(=O)OC)cc2N(C(=O)C(F)(F)F)[C@H](CC=C)C(=O)OC)cn1COCC[Si](C)(C)C, rcm bond, 12-membered ring, Grubbs II (15 mol%), DCE, 37.3 mM, 84.0 °C, 15.0 h", "value": 37, "unit": "%"}
    ]},
    {"compound": "COC(=O)Nc1ccc2c(c1)NC(=O)C/C=C/CC(NC(=O)OC(C)(C)C)c1cc-2nc(C)n1", "note": "(centres unmarked)", "values": [
      {"measurement": "ring closure, isolated yield", "setting": "from C=CCC(=O)Nc1cc(NC(=O)OC)ccc1-c1cc(C(CC=C)NC(=O)OC(C)(C)C)nc(C)n1, rcm bond, 12-membered ring, Grubbs II (0.4 eq)/HCl, DCM, 0.5 mM, 40.0 °C, 4.0 h", "value": 22, "unit": "%"}
    ]},
    {"compound": "CC(C)(C)OC(=O)N[C@H]1C/C=C\\CCOc2ccccc2-c2cn(COCC[Si](C)(C)C)c1n2", "values": [
      {"measurement": "ring closure, isolated yield", "setting": "[3]", "value": 9, "unit": "%"}
    ]},
    {"compound": "COC(=O)Nc1ccc2c(c1)N[C@@H](C(=O)NCc1ccccn1)CCCC[C@H](NC(=O)/C=C/c1cc(Cl)ccc1-n1cnnn1)c1cc-2ccn1", "note": "[II-58]", "values": [
      {"measurement": "Ki", "setting": "[1]", "value": 21, "unit": "nM"}
    ]},
    {"compound": "(S)-Methyl N-4-(2-(1-(tert-butoxycarbonylamino)but-3-enyl)-1-((2-(trimethylsilyl)ethoxy)methyl)-1H-imidazol-4-yl)-3-(4-methylpent-4-enamido)phenylmethanimidoperoxoate", "values": [
      {"measurement": "ring closure, isolated yield", "setting": "the molecule shown is the open-chain precursor, rcm bond, 13-membered ring, Grubbs II (0.2 eq), microwave, DCE, 105.0 mM, 120.0 °C", "value": 34.6, "unit": "%"}
    ]},
    {"compound": "CC(C)(C)OC(=O)N[C@H]1C/C=C/CCCc2ccccc2-c2cn(COCC[Si](C)(C)C)c1n2", "values": [
      {"measurement": "ring closure, isolated yield", "setting": "[4]", "value": 45.3, "unit": "%"}
    ]},
    {"compound": "COC(=O)Nc1ccc2c(c1)NC(=O)CC/C=C/CC(NC(=O)OC(C)(C)C)c1cc-2nnc1Cl", "note": "(centres unmarked)", "values": [
      {"measurement": "ring closure, isolated yield", "setting": "from C=CCCC(=O)Nc1cc(NC(=O)OC)ccc1-c1cc(C(CC=C)NC(=O)OC(C)(C)C)c(Cl)nn1, rcm bond, 13-membered ring, Grubbs II, DCM, 6.6 mM, 1.0 h", "value": 56, "unit": "%"}
    ]},
    {"compound": "COC(=O)Nc1ccc2c(c1)NC(=O)CC/C=C/CC(NC(=O)/C=C/c1cc(Cl)ccc1-n1cnnn1)c1cc-2nnc1Cl", "note": "(centres unmarked) [Example 89, {(E)-17-Chloro-15-[(E)-3-(5-chloro-2-tetrazol-1-yl-phenyl)-acryloylamino]-9-oxo-8,18,19-triaza-tricyclo[14.3.1.0^2,7]icosa-1(20),2,4,6,12,16,18-heptaen-5-yl}-carbamic Acid Methyl Ester]", "values": [
      {"measurement": "Ki", "setting": "[1]", "value": 1060, "unit": "nM"}
    ]},
    {"compound": "COC(=O)Nc1ccc2c(c1)CCCN(C)C(=O)C[C@H](NC(=O)OC(C)(C)C)c1nc-2cn1COCC[Si](C)(C)C", "values": [
      {"measurement": "ring closure, isolated yield", "setting": "from CNCCCc1cc(NC(=O)OC)ccc1-c1cn(COCC[Si](C)(C)C)c([C@H](CC(=O)O)NC(=O)OC(C)(C)C)n1, amide bond, 12-membered ring, BOP/DIEA/DMAP, DCM/DMF, 8.6 mM, 25.0 °C, 2.0 h", "value": 39.4, "unit": "%"}
    ]},
    {"compound": "CC(C)(C)OC(=O)N[C@H]1C/C=C\\CCCc2ccccc2-c2cn(COCC[Si](C)(C)C)c1n2", "values": [
      {"measurement": "ring closure, isolated yield", "setting": "[4]", "value": 17.6, "unit": "%"}
    ]},
    {"compound": "COC(=O)Nc1ccc2c(c1)NC(=O)CCN(C(=O)OC(C)(C)C)C[C@H](NC(=O)OCc1ccccc1)c1nc-2cn1COCC[Si](C)(C)C", "values": [
      {"measurement": "ring closure, isolated yield", "setting": "from COC(=O)Nc1ccc(-c2cn(COCC[Si](C)(C)C)c([C@H](CN(CCC(=O)O)C(=O)OC(C)(C)C)NC(=O)OCc3ccccc3)n2)c(N)c1, amide bond, 12-membered ring, BOP/DIEA, DCM/DMF, 0.93 mM, 25.0 °C, 5.0 h", "value": 87, "unit": "%"}
    ]},
    {"compound": "COC(=O)Nc1ccc2c(c1)NC(=O)CC/C=C/C[C@H](NC(=O)OC(C)(C)C)c1cc-2ccn1", "values": [
      {"measurement": "ring closure, yield after HPLC", "setting": "[2]; from C=CCCC(=O)Nc1cc(NC(=O)OC)ccc1-c1ccnc([C@H](CC=C)NC(=O)OC(C)(C)C)c1, rcm bond, 13-membered ring, Grubbs II/pTsOH, DCM, 0.99 mM, 40.0 °C, 1.5 h", "value": 75, "unit": "%"}
    ]},
    {"compound": "COC(=O)c1ccc2c(c1)OCCNC(=O)CC(NC(=O)OC(C)(C)C)c1cc-2nnc1Cl", "note": "(centres unmarked)", "values": [
      {"measurement": "ring closure, yield after HPLC", "setting": "[2]; from COC(=O)c1ccc(-c2cc(C(CC(=O)O)NC(=O)OC(C)(C)C)c(Cl)nn2)c(OCCN)c1, amide bond, 12-membered ring, BOP/DIEA/DMAP, DCM/DMF, 1.28 mM, 2.5 h", "value": 15.3, "unit": "%"}
    ]},
    {"compound": "CC(C)(C)OC(=O)N[C@H]1C/C=C/CCOc2ccccc2-c2cn(COCC[Si](C)(C)C)c1n2", "values": [
      {"measurement": "ring closure, isolated yield", "setting": "[3]", "value": 20, "unit": "%"}
    ]},
    {"compound": "COC(=O)Nc1ccc2c(c1)N[C@@H](C(=O)OC)CC=CC[C@H](NC(=O)OC(C)(C)C)c1nc-2cn1COCC[Si](C)(C)C", "values": [
      {"measurement": "ring closure, isolated yield", "setting": "from C=CC[C@H](NC(=O)OC(C)(C)C)c1nc(-c2ccc(NC(=O)OC)cc2N[C@H](CC=C)C(=O)OC)cn1COCC[Si](C)(C)C, rcm bond, 12-membered ring, Grubbs II (0.4 eq), DCE, 40.0 mM, 120.0 °C, 0.33 h", "value": 30, "unit": "%"}
    ]},
    {"compound": "CC(C)(C)OC(=O)N[C@H]1C/C=C\\CCC(=O)Nc2ccccc2C2=NN=C1O2", "note": "(mixture of isomers)", "values": [
      {"measurement": "ring closure, yield after HPLC", "setting": "[2]; from C=CCCC(=O)Nc1ccccc1-c1nnc([C@H](CC=C)NC(=O)OC(C)(C)C)o1, rcm bond, 13-membered ring, Grubbs II, DCM, 4.8 mM, 75.0 °C, 1.5 h", "value": 27, "unit": "%"}
    ]}
  ]
}
